Laboratory results from patent US8686044B2, “Amide derivative, pest control agent containing the amide derivative, and use of the amide derivative” (Mitsui Chemicals Agro, Inc., priority 2008, dated 2014).
Like-named read-outs stand apart in the source and are kept apart here.

Legend:
Format in all cases: in vivo
[1] = test system: Helicoverpa armigera; assay: Pesticidal test against Helicoverpa armigera (cabbage leaf disk dip); conditions: foliar, 72 h, 2-stage larvae, examined after 3 days, 25° C., read-out: pesticidal rate; for pest or weed control at 1 ppm: concentration 1 ppm
Procedure, shortened: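 Cabbage leaf disks were dipped for 30 s in test solution at a set concentration and air-dried. Second-instar larvae were placed one per hole and held at 25 °C, with live and dead counts taken after 3 days. Five larvae per group were tested in two replicates.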

[2] = test system: Spodoptera litura; assay: Pesticidal test against Spodoptera litura (cabbage leaf dip); conditions: foliar, 144 h, concentration 1 ppm, 2-stage larvae, examined after 6 days, 25° C., read-out: pesticidal rate
Procedure, shortened: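 Cabbage leaf pieces dipped 30 seconds in compound solution at a predetermined concentration and air-dried, then offered to second-stage larvae, five per group in two replicates. Held at 25° C. Living and dead larvae counted after 6 days.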

[3] = test system: Blattella germanica; assay: Pesticidal test against Blattella germanica (petri dish dry film); conditions: 24 h, concentration 100 ppm, female adults, examined after 1 day, 25° C., read-out: pesticidal rate
Procedure, shortened: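 Acetone solution of test compound at a predetermined concentration dried as a film in a 9 cm petri dish; female adult cockroaches released onto it and kept at 25° C. Living and dead counted after 1 day; five insects per group, two replicates.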

[4] = test system: Adoxophyes honmai; assay: Pesticidal test against Adoxophyes honmai (artificial feed dip); conditions: 144 h, 2-stage larvae, examined after 6 days, 25° C., read-out: pesticidal rate; for pest or weed control at 1 ppm: concentration 1 ppm
Procedure, shortened: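 Second-instar larvae, five per group in duplicate, were released onto air-dried feed slices previously immersed for 30 s in compound solution at a set concentration. Mortality was scored on day 6 at 25° C.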

[5] = test system: Choristoneura magnanima; assay: Pesticidal test against Choristoneura magnanima (artificial feed dip); conditions: 144 h, concentration 1 ppm, 2-stage larvae, examined after 6 days, 25° C., read-out: pesticidal rate
Procedure, shortened: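 Second-stage larvae, five per group in duplicate, fed artificial diet that had been immersed 30 s in test solution at a predetermined concentration and air-dried. Mortality scored at day 6, 25° C.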

[6] = test system: Plutella xylostella; assay: Pesticidal test against Plutella xylostella (cabbage leaf dip); conditions: foliar, 144 h, concentration 1 ppm, 2-stage larvae, examined after 6 days, 25° C., read-out: pesticidal rate
Procedure, shortened: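 Second-stage larvae (5 per group, two replicates) were released onto air-dried cabbage leaf discs that had been immersed for 30 seconds in compound solution at a set concentration. Mortality was scored after 6 days at 25° C.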

[7] = test system: Laodelphax striatellus; assay: Pesticidal test against Laodelphax striatellus (rice seedling spray); conditions: 144 h, concentration 100 ppm, 3-stage larvae, examined after 6 days, 25° C., read-out: pesticidal rate
Procedure, shortened: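 Rice seedlings sprayed with 2.5 ml acetone solution of compound at a predetermined concentration, air-dried, then infested with third-stage Laodelphax striatellus larvae in capped water-containing tubes at 25 °C. Living and dead insects counted after 6 days; ten larvae per group, two replicates.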

[8] = test system: Musca domestica; assay: Pesticidal test against Musca domestica (petri dish dry film); conditions: 24 h, concentration 100 ppm, female adults, examined after 1 day, 25° C., read-out: pesticidal rate
Procedure, shortened: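 Female adult houseflies were confined at 25° C in capped 9 cm petri dishes coated with an air-dried film from 1 ml acetone solution of compound (predetermined concentration). Mortality was scored 1 day later, two replicates of five per group.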

[9] = test system: Ctenocephalides Felis; assay: Insecticidal test for Ctenocephalides felis, Test Example 1 (dry film in glass tube, 0.5 ml, Table A4); conditions: for pest or weed control at 0.1 µg/mL / pest or weed control at 1 µg/mL: Ctenocephalides felis, read-out: death rate; for pest or weed control at 1 µg/mL: concentration 1.0 μg/ml
Protocol: Insecticidal Test for Ctenocephalides Felis
0.5 ml of a solution of acetone, the active ingredient, prepared to the prescribed concentration was added dropwise to a glass tube with a flat bottom (internal diameter: 2.6 cm, bottom area: 5.3 cm^2, height: 12 cm), and the solvent was evaporated at room temperature to form a dry film of the agent on the bottom surface. About 10 adults of Ctenocephalides Felis per glass tube were added, and the adults were contact-exposed to the test compound. After 24 hours of the exposure, the conditions of the adults were examined and classified into “alive” and “dead (including a moribund condition)” to determine the death rate (in triplicate).
As the comparative compounds, the following Compounds (A), (B), and (C) disclosed in WO2009/080203, and fipronil were used.

[10] = test system: Ctenocephalides Felis; assay: as above; conditions: adults
[11] = test system: Coptotermes formosanus; assay: Pesticidal test against Coptotermes formosanus (treated filter paper); conditions: 120 h, concentration 30 ppm, examined after 5 days of treatment, 28° C., read-out: pesticidal rate
Protocol: Pesticidal Test against Coptotermes formosanus
20 μl of an acetone solution in which a test compound had been prepared at a predetermined concentration was added dropwise to the filter paper having a diameter of […] included in a polypropylene cup, and air-dried, and then 20 μl of water was added thereto. Coptotermes formosanus was released and the cup was capped. They were left to stand in a thermostatic chamber at 28° C., and the numbers of the living pests and the dead pests were examined after 5 days of treatment. The test was carried out with ten larvae per group in two replicates.

[12] = test system: Rhipicephalus sanguineus; assay: Insecticidal test for Rhipicephalus sanguineus (treated glass petri dish, Table A6); conditions: adults of Rhipicephalus sanguineus, 18 hour exposure, examined after 48 hours, in single
Protocol: Insecticidal Test for Rhipicephalus sanguineus
0.5 ml of a solution of acetone, the active ingredient, prepared to the prescribed dose was added dropwise into a glass petri dish with a diameter of 10 cm, and the acetone was evaporated at room temperature. About 10 adults of Rhipicephalus sanguineus per dish were added, and the dish was covered by another glass petri dish that was treated with the active ingredient in the same manner described above. After 18 hour exposure to the test substance, the adults were transferred into a glass petri dish that was not treated with the active ingredient. After 48 hours of the exposure, the conditions of the adults were examined and classified into “alive” and “dead (including a moribund condition)” to determine the death rate (in single).
As the comparative compounds, said Compounds (B), (C), and (D), and the following Compound (F) disclosed in WO2009/080203, and fipronil were used.

[13] = test system: Ctenocephalides Felis; assay: Insecticidal test for Ctenocephalides felis, Test Example 3 (dry film in glass tube, 0.96 ml, Table A5); conditions: adults of Ctenocephalides felis, after 24 hours of exposure, in triplicate
Protocol: Insecticidal Test for Ctenocephalides felis
0.96 ml of a solution of acetone, the active ingredient, prepared to the prescribed concentration was added dropwise to a glass tube with a flat bottom (internal diameter: 3.6 cm, height: 12 cm), and the solvent was evaporated at room temperature to form a dry film of the agent on the bottom surface. About 10 adults of Ctenocephalides felis per glass tube were added, and they were contact-exposed to the test compound. After 24 hours of the exposure, the conditions of the adults were examined and classified into “alive” and “dead (including a moribund condition)” to determine the death rate was determined (in triplicate).
As the comparative compounds, the following Compounds (D) and (E) disclosed in WO2009/080203, and fipronil were used.

[14] = concentration 0.1 μg/ml, adults, after 24 hours of the exposure, in triplicate
[15] = adults, after 24 hours of the exposure, in triplicate

Compound | pest or weed control at 1 ppm [2] [%] | pest or weed control at 100 ppm [3] [%] | pest or weed control at 1 ppm [5] [%] | pest or weed control at 1 ppm [6] [%] | pest or weed control at 100 ppm [7] [%] | pest or weed control at 100 ppm [8] [%] | pest or weed control at 0.1 µg/mL [9, 14] [%] | pest or weed control at 1 µg/mL [9, 15] [%] | death rate ([12]; 0.673 mg/m^2) [%] | death rate ([12]; 2.69 mg/m^2) [%] | death rate ([12]; 10.8 mg/m^2) [%] | further results
O=C(Nc1cccc(C(=O)Nc2c(I)cc(C(F)(C(F)(F)F)C(F)(F)F)cc2C(F)(F)F)c1F)c1ccc(F)cc1 [6-1733, 2-fluoro-3-(4-fluorobenzamide)-N-(2-iodo-4-(heptafluoropropan-2-yl)-6-(trifluoromethyl)phenyl)benzamide] | ≥ 70 | ≥ 70 | ≥ 70 | ≥ 70 | ≥ 70 | ≥ 70 | 70 |  |  |  |  | pest or weed control at 1 ppm [1]: ≥ 70%; pest or weed control at 1 ppm [4]: ≥ 70%
CN(C(=O)c1ccccc1)c1cccc(C(=O)Nc2c(Br)cc(C(F)(C(F)(F)F)C(F)(F)F)cc2Br)c1F [7-1104, N-(2,6-dibromo-4-(heptafluoropropan-2-yl)phenyl)-2-fluoro-3-(N-methylbenzamide)benzamide] | ≥ 70 | ≥ 70 | ≥ 70 | ≥ 70 | ≥ 70 | ≥ 70 | 73.3 |  |  |  |  | pest or weed control at 10 ppm ([1]; concentration 10 ppm): ≥ 70%; pest or weed control at 10 ppm ([4]; concentration 10 ppm): ≥ 70%; effect in the examination after 12 hours of the exposure [10]: effective; pest or weed control at 30 ppm [11]: ≥ 70%; speed of effect as compared with the fipronil ([9]; adults, compared with fipronil): immediate effect
CN(C(=O)c1cccc(F)c1)c1cccc(C(=O)Nc2c(I)cc(C(F)(C(F)(F)F)C(F)(F)F)cc2C(F)(F)F)c1F [7-1732, 2-fluoro-3-(3-fluoro-N-methylbenzamide)-N-(2-iodo-4-(heptafluoropropan-2-yl)-6-(trifluoromethyl)phenyl)benzamide] | ≥ 70 | ≥ 70 | ≥ 70 | ≥ 70 | ≥ 70 | ≥ 70 | 76.7 |  |  |  |  | pest or weed control at 1 ppm [1]: ≥ 70%; pest or weed control at 1 ppm [4]: ≥ 70%; pest or weed control at 30 ppm [11]: ≥ 70%
Cc1cc(C(F)(C(F)(F)F)C(F)(F)F)cc(C)c1NC(=O)c1cccc(NC(=O)c2cccnc2F)c1 [compound (A), reference compound] |  |  |  |  |  |  |  | 0 |  |  |  | 
O=C(Nc1cccc(C(=O)Nc2c(I)cc(C(F)(C(F)(F)F)C(F)(F)F)cc2I)c1)c1ccccc1 [compound (B)] |  |  |  |  |  |  |  | 3.2 | 0.0 | 20.0 | 50.0 | 
O=C(Nc1cccc(C(=O)Nc2c(I)cc(C(F)(F)F)cc2C(F)(F)F)c1)c1ccccc1 [compound (C)] |  |  |  |  |  |  |  | 0 | 0.0 | 11.1 | 10.0 | 
Cc1cc(C(F)(C(F)(F)F)C(F)(F)F)cc(C)c1NC(=O)c1cccc(NC(=O)c2cccnc2Cl)c1F [compound (D)] |  |  |  |  |  |  |  |  | 0.0 | 10.0 | 50.0 | death rate ([13]; 0.3 μg/ml): 22.0%; death rate ([13]; 1 μg/ml): 61.4%
CCc1cc(C(F)(C(F)(F)F)C(F)(F)F)cc(C)c1NC(=O)c1cccc(NC(=O)c2ccccc2Cl)c1F [compound (E)] |  |  |  |  |  |  |  |  |  |  |  | death rate ([13]; 1 μg/ml): 0.0%
N#Cc1nn(-c2c(Cl)cc(C(F)(F)F)cc2Cl)c(N)c1[S+]([O-])C(F)(F)F (stereo not shown) [fipronil] |  |  |  |  |  |  |  |  | 100.0 |  |  | death rate ([12]; 0.0431 mg/m^2): 0.0%; death rate ([12]; 0.172 mg/m^2): 45.5%; death rate ([13]; 0.03 μg/ml): 70.0%; death rate ([13]; 0.1 μg/ml): 100.0%; pest or weed control at 0.1 µg/mL ([9]; 24 h): 92.1%
